Results published in patent US20060222636A1, “Compositions, methods and kits relating to reprogramming adult differentiated cells and production of embryonic stem cell-like cells” (The Rockefeller University, priority 2003, published 2006).
Read-outs that look alike come from different tables or passages of the source.

Assays:
[1] = tested on: human primary Schwann cells; assay: Cell cycle FACS analysis (propidium iodide); format: cell-based
Procedure: Human primary Schwann cells, that had been cultured for 15 and 30 days with and without M. leprae were trypsinized and adjusted to equal cell number. For the experiments with kinase inhibitors, synchronized infected and control cells were treated with pre-evaluated concentrations of various inhibitors as described previously elsewhere herein, and with different combinations of inhibitors before being processed for cell cycle FACS (Lemoine and Marriott, 2001, J. Biol. Chem. 276:31851-31857). To assess the effect of Lck inhibitor on heregulin-induced cell cycle progression, synchronized Schwann cells were treated with heregulin for 30 minutes in the presence and absence of Lck inhibitor. Cells were then washed with PBS, fixed with 85% ethanol overnight at […] and suspended in 1 ml PBS containing 1% FBS, RNase A (250 μg/ml; Roche Molecular Biochemicals) and 100 μg/ml Propidium Iodide (Sigma) for 30 minutes at 37° C. Stained cells were washed twice with PBS and subjected to FACS analysis on a Becton Dickinson FACScan cytometer (Ruhl et al., 1999, J. Biol. Chem. 274: 34361-34368). The cell cycle profile was analyzed with CellQuest software (Becton & Dickinson).

[2] = tested on: Erk1/2 and GSK-3β phosphorylation; format: cell-based, human; conditions: for phosphorylation of Erk1/2 and GSK-3β in infected Schwann cells in presence of inhibitor: synchronized, continuous presence of inhibitor (15 μM); for M. leprae-induced Erk1/2 phosphorylation in presence of PKC inhibitor: 20 nM, serum starved 48 hours
Procedure: The cDNA produced was subsequently PCR amplified for 30 cycles using the various specific primers and fluorescent probes in a 384-well GeneAmp PCR system 9700 (Applied Biosystems, Foster City, Calif.). The level of each target gene was normalized to GAPDH gene as an endogenous reference. The data obtained were analyzed with the ABI PRISM 7900 HT Sequence detection system (Bulletin No. 2, Applied Biosystems). For control reactions the same master mixes were used but excluding the template RNA. Synchronization of Primary Schwann Cell and Kinase Inhibition Schwann cells that had been cultured for 30 days were synchronized for 48 hours by removing growth factor and serum. Schwann cells were then released to progress through the cell cycle by addition of 10% serum to the culture. Cytoplasmic and nuclear extracts obtained from these synchronized cells were prepared before (time 0) and after addition of serum at various time points (i.e., 9 to 18 hours after release). For Erk1/2 and pI3-k inhibition, pre-evaluated concentrations of specific MEK1/2 inhibitor UO126 (15 μM) and PD098059 (15 μM), pI3-k inhibitor LY294002 (15 μM) (Cell Signaling Technology) and SOS inhibitor (10 μg) (Upstate Biotechnology, Lake Placid, N.Y.) were added to the culture medium during synchronization and serum release, and cytoplasmic and nuclear extracts were prepared as described above and the proteins were immunoblotted using antibodies to phospho-Erk1/2, phospho-Akt, phosphoGSK-3β and cyclin-D1. For SOS inhibition studies, cell permeable SOS inhibitory peptide was added and the cells were treated as described above to analyze the effect of SOS inhibitor on M. leprae-induced activation of the above-referenced signaling molecules. None of the inhibitors examined produced any detectable apoptosis or non-apoptotic Schwann cell death under these conditions.
(§1) Human Schwann cells that had been cultured for 30 days with and without M. leprae were synchronized for 48 hours and then released to re-enter the cell cycle by addition of 10% serum. Cytoplasmic and nuclear extracts of these synchronized cells were prepared before and after addition of serum at different time points (9 to 18 hours after release). For Erk1/2 and PI3-k inhibition, pre-evaluated concentrations of specific MEK1/2 inhibitor UO126 (15 μM) and PD098059 (15 μM), pI3-k inhibitor LY294002 (15 μM) (Cell Signaling Technology), SOS inhibitor (10 μg) (Upstate Biotechnology, Lake Placid N.Y.) were used. For PKC and lck inhibition, pan-PKC inhibitor bisindolylmaleimide-I (20 nM) and Lck inhibitor PP2 (10 μM) (Calbiochem-Novabiochem Corporation, CA), respectively, were added to the culture medium during synchronization, and cytoplasmic and nuclear extracts were prepared as described above and were immunoblotted with antibodies to various phospho-specific signaling antibodies. None of the inhibitors produced any apoptosis or Schwann cell death under these conditions.

[3] = tested on: cyclin D1; assay: Nuclear cyclin D1 immunoblot of synchronized Schwann cells; format: cell-based, human; conditions: added to MEK and Pi3-kinase inhibitors
Procedure: Protein expression intensity was normalized using β-actin expression as an internal control marker and quantified with a densitometer (Alpha Innotech Corporation, San Leandro, Calif.) using the Alpha Imager 2200 v.5.5 software. For preparation of nuclear and cytoplasmic extracts, cells were incubated in a buffer containing 10 mM HEPES pH 7.5, 60 mM KCl, 1 mM EDTA, 0.1% NP-40, 1 mM DTT, 1 mM PMSF and protease inhibitors cocktail for 10 minutes on ice. Lysates were then centrifuged for 10 minutes and the supernatant, which comprised of cytoplasmic extract, was collected. The pellet was re-suspended in a buffer containing 50 mM Tris-HCl pH 7.5, 150 mM NaCl, 1% sodium lauryl sarcosine, 1% NP-40, 0.1% SDS, 1 mM EDTA and protease inhibitors cocktail. After brief sonication, the lysates were centrifuged for 10 minutes and the supernatant, consisting of nuclear extract, was collected. The protein content in both extracts was determined using the BCA method per manufacturer's instructions (Pierce Chemical, Rockford, Ill.).
The cDNA produced was subsequently PCR amplified for 30 cycles using the various specific primers and fluorescent probes in a 384-well GeneAmp PCR system 9700 (Applied Biosystems, Foster City, Calif.). […] The data obtained were analyzed with the ABI PRISM 7900 HT Sequence detection system (Bulletin No. 2, Applied Biosystems). […]

[4] = tested on: Lck/Ser-158; assay: Phospho-Lck/Ser-158 immunoblot; format: cell-based, human; conditions: PKC inhibitor (10 μM)
Procedure: as §1, with “For PKC and lck inhibition, pan-PKC inhibitor bisindolylmaleimide-I (20 nM) and Lck inhibitor PP2 (10 μM) (Calbiochem-Novabiochem Corporation, CA), respectively, were added to the culture medium during synchronization, and cytoplasmic and nuclear extracts were prepared as described above and were immunoblotted with antibodies to various phospho-specific signaling antibodies.” left out
To examine if the addition of exogenous Heregulin-β1 can induce Lck/Ser-158 phosphorylation, human Schwann cells were serum-starved for 48 hours and then incubated with 10 nM […] for 30 minutes. Subsequently, total protein lysates were prepared and the phosphorylation state of Erk1/2, PKC-alpha-betaII/βII and Lck-Ser158 were examined using phospho-specific antibodies.

[5] = tested on: PKCα/βII; assay: Phospho-PKC isoform immunoblot; format: cell-based, human
Procedure: as §1
Although PKC is known to play a role in oligodendrocyte proliferation and differentiation (Bhat et al., 1992, J. Neurosci. Res. 32:340-349; Stariha and Kim, 2001, Microsc. Res. Tech. 52:680-688), much less is known about its function in Schwann cells. […]

[6] = tested on: human Schwann cells; assay: Apoptosis markers (TUNNEL assays, immunoblot of Caspase-3, Caspase-9, PARP); format: cell-based; conditions: Camptothecin (1.5 μM)-treated Schwann cells, within 48 hours, positive control
Procedure: Total protein extracts were prepared from M. leprae infected and non-infected human Schwann cells in cell lysis and nuclear extraction buffer containing 62 mM Tris-HCl pH 6.8, 2% SDS, 10% Glycerol, 50 mM DTT and 0.2% protease inhibitors cocktail (Sigma, St. Louis, Mo.). Lysates were cleared by centrifugation and the protein content was determined according to the BCA method per manufacturer's instructions (PIERCE Chemical, Rockford Ill.). 40 μg of total cellular extracts were separated by sodium dodecyl sulfate-polyacrylamide gel electrophoresis (SDS-PAGE) and transferred to nitrocellulose membranes (Schleicher & Schuell, Keene, N.H.). Bound antibodies were detected using species-specific secondary antibodies coupled to HRP (Cell Signaling Technology, Beverly, Mass.) followed by enhanced chemiluminescence development (PIERCE Chemical, Rockford Ill.).
Total protein extracts were prepared by harvesting M. leprae infected human Schwann cells in cell lysis buffer and non-infected human Schwann cells in nuclear extracting buffer. Lysates were cleared by centrifugation and the protein content was determined according to the BCA method (PIERCE Chemical, Rockford Ill.). […] Protein expression intensity was normalized to β-actin expression and quantified with a densitometer (Alpha Innotech Corporation, San Leandro, Calif.) using the Alpha Imager 2200 v.5.5 software. […]

For `CC(C)(C)n1nc(-c2ccc(Cl)cc2)c2c(N)ncnc21` [PP2], the “net M. leprae-induced S-phase cell population in presence of Lck inhibitor” value ([1]; added to MEK and Pi3-kinase inhibitors) was “dramatically reduced”, the “net S-phase population induced by exogenous heregulin-β1 in presence of Lck inhibitor” value ([1]; listed as Lck inhibitor) was “did not affect” and the “net S-phase population induced by exogenous heregulin-β1 in presence of Lck inhibitor” value ([1]; listed as Lck-inhibitor) was “fails to respond”. For the same molecule, the “M. leprae-induced phosphorylation of Erk1/2 in presence of Lck inhibitor” value ([2]; 10 μM, with MEK1/2 and Pi3K inhibitors, 48 hours) was “significant reduction”, the “nuclear cyclin D1 in presence of Lck inhibitor” value ([3]; listed as Lck inhibitor) was “dramatically reduced” and the “nuclear cyclin D1 in presence of Lck inhibitor” value ([3]; listed as Lck-inhibitor) was “significant blockade”.
With `N#CC(=C(/N)Sc1ccccc1N)/C(C#N)=C(\N)Sc1ccccc1N` [U0126] the “phosphorylation of Erk1/2 and GSK-3β in infected Schwann cells in presence of inhibitor” value [2] was “not inhibited”.
In the case of `CN(C)CCCn1cc(C2=C(c3c[nH]c4ccccc34)C(=O)NC2=O)c2ccccc21` [bisindolylmaleimide-I], the “M. leprae-induced Erk1/2 phosphorylation in presence of PKC inhibitor” value ([2]; with MEK1/2 and Pi3K inhibitors) is reported as “significantly blocked”, the “M. leprae-induced Erk1/2 phosphorylation in presence of PKC inhibitor” value ([2]; with MEK1/2 and Pi3K inhibitors, listed as PKC inhibitor) is reported as “dramatically down-regulated” and the “apoptosis or cell death of treated cells” value ([2]; bisindolylmaleimide-I 20 nM) is reported as “no apoptosis or cell death”. For the same molecule, the “phosphorylation at Lck/Ser-158 in presence of PKC inhibitor” value ([4]; listed as PKC inhibitor) was “completely abolished”, the “phosphorylation at Lck/Ser-158 in presence of PKC inhibitor” value ([4]; listed as PKCI) was “abrogated” and the “M. leprae-induced phospho-PKCα/βII in presence of pan-PKC inhibitor” value [5] was “markedly blocked”.
With `CC[C@@]1(O)C(=O)OCc2c1cc1n(c2=O)Cc2cc3ccccc3nc2-1` [Camptothecin] the “expression of apoptosis markers caspase 3, caspase 9, PARP” value [6] was “induced the expression of these apoptotic markers” and the “expression of apoptosis markers caspase 3, caspase 9, PARP” value ([6]; listed as camptothecin) was “express all three apoptosis markers”.
`O=c1cc(N2CCOCC2)oc2c(-c3ccccc3)cccc12` [LY294002] was tested, and the “phosphorylation of Erk1/2 and GSK-3β in infected Schwann cells in presence of inhibitor” value [2] was “not inhibited”.
